Literature values in paper PMC9516332 (Frontiers in Oncology, 2022).
Where two headings read alike, the source gives them in different places.

Assays:
Conditions in all cases: cited from earlier work
[1] = target: panel of 255 wild-type kinases (Homo sapiens, UniProt Q14680)
[2] = target: panel of 255 wild-type kinases (Homo sapiens, UniProt P27361)
[3] = target: panel of 255 wild-type kinases (Homo sapiens, UniProt Q86Z02)
[4] = MELK, 1 µmol/L single concentration, ref DOI: 10.1158/1535-7163.MCT-18-0877
[5] = kinase Erk1, 1 µmol/L single concentration, ref DOI: 10.1158/1535-7163.MCT-18-0877
[6] = kinase HIPK1, 1 µmol/L single concentration, ref DOI: 10.1158/1535-7163.MCT-18-0877
[7] = MELK, 1 µmol/L single concentration, ref DOI: 10.1371/journal.pone.0092146
[8] = kinase Erk1, 1 µmol/L single concentration, ref DOI: 10.1371/journal.pone.0092146
[9] = kinase HIPK1, 1 µmol/L single concentration, ref DOI: 10.1371/journal.pone.0092146

Compound	%-inhibition, MELK [1, 4]	%-inhibition at 1 µmol/L, Erk1 [2, 5]	%-inhibition at 1 µmol/L, HIPK1 [3, 6]	%-inhibition, MELK [1, 7]	%-inhibition at 1 µmol/L, Erk1 [2, 8]	%-inhibition at 1 µmol/L, HIPK1 [3, 9]	other results
CC#CC(=O)N1CCC[C@H]1c1nc(-c2ccc(C(=O)Nc3ccccn3)cc2)c2c(N)nccn12 [acalabrutinib]	-0.54%	-2.38%	-15%				
CCc1cc2c(cc1N1CCC(N3CCOCC3)CC1)C(C)(C)c1[nH]c3cc(C#N)ccc3c1C2=O [alectinib]	29%	1.41%	2.52%				
COc1cc(N2CCC(N3CCN(C)CC3)CC2)ccc1Nc1ncc(Cl)c(Nc2ccccc2P(C)(C)=O)n1 [brigatinib]							%-inhibition, MELK [1]: 49%; %-inhibition at 1 µmol/L, Erk1 [2]: 3.68%; %-inhibition at 1 µmol/L, HIPK1 [3]: 11%
Cc1cc(Nc2ncc(Cl)c(Nc3ccccc3S(=O)(=O)C(C)C)n2)c(OC(C)C)cc1C1CCNCC1 [ceritinib]	4.5%	35%	12%				
O=C(c1ccc(F)c(F)c1Nc1ccc(I)cc1F)N1CC(O)([C@@H]2CCCCN2)C1 [cobimetinib]	2.53%	-0.916%	6.62%				
C[C@@H](Oc1cc(-c2cnn(C3CCNCC3)c2)cnc1N)c1c(Cl)ccc(F)c1Cl [crizotinib]				5.47%	-2%	-7%	
CC(C)(C)c1nc(-c2cccc(NS(=O)(=O)c3c(F)cccc3F)c2F)c(-c2ccnc(N)n2)s1 [dabrafenib]				82%	-1.62%	70%	
C=CC(=O)N1CCC[C@@H](n2nc(-c3ccc(Oc4ccccc4)cc3)c3c(N)ncnc32)C1 [ibrutinib]	8%	1.74%	4.26%				
CO[C@@H]1[C@H](N(C)C(=O)c2ccccc2)C[C@H]2O[C@]1(C)n1c3ccccc3c3c4c(c5c6ccccc6n2c5c31)C(=O)NC4 [midostaurin]	95%	-0.653%	12%				
C=CC(=O)Nc1cc(Nc2nccc(-c3cn(C)c4ccccc34)n2)c(OC)cc1N(C)CCN(C)C [osimertinib]	2.22%	-3.18%	34%				
CC(=O)Nc1cccc(-n2c(=O)n(C3CC3)c(=O)c3c(Nc4ccc(I)cc4F)n(C)c(=O)c(C)c32)c1 [trametinib]				-0.588%	-1.14%	-3.71%	
CCCS(=O)(=O)Nc1ccc(F)c(C(=O)c2c[nH]c3ncc(-c4ccc(Cl)cc4)cc23)c1F [vemurafenib]				4%	0.0533%	-4.72%	
